Data reported in patent US11891365B2, “3-alkyl-4-amido-bicyclic [4,5,0] hydroxamic acids as HDAC inhibitors” (Valo Health, Inc., priority 2015, dated 2024).

Molecular target: T1, Full length human recombinant HDAC6 protein (Homo sapiens, UniProt Q9UBN7)
T1 sequence (Q9UBN7 1-1215): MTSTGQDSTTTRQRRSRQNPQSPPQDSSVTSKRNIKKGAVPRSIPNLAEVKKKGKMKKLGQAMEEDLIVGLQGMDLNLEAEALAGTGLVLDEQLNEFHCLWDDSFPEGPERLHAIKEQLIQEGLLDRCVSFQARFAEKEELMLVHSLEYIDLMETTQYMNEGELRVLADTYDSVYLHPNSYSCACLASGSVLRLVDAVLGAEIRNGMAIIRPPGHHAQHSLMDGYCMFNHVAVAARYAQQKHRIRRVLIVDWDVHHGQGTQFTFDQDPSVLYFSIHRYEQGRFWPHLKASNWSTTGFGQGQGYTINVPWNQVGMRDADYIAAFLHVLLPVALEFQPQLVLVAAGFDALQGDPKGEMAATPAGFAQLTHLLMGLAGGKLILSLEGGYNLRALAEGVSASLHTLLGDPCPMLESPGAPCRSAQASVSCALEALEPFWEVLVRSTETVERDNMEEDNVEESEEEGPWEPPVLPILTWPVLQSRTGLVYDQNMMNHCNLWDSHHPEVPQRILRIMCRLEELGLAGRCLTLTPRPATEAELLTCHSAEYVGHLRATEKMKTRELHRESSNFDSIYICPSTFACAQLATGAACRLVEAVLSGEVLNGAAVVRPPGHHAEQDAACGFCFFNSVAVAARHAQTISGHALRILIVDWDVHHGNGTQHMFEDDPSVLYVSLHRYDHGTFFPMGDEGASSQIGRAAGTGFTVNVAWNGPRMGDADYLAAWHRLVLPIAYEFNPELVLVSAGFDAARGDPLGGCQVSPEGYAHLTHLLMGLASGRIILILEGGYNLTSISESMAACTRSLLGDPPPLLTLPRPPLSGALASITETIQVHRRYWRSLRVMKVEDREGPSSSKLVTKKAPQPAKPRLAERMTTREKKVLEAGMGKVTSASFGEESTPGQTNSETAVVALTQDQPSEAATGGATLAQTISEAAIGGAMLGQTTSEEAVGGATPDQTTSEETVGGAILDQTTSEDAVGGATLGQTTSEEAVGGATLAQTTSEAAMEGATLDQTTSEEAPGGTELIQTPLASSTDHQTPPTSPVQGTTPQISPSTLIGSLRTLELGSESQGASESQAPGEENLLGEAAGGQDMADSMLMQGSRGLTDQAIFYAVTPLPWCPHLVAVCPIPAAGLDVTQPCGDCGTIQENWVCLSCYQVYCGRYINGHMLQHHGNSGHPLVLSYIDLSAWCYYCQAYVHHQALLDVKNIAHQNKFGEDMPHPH
Assay: In vitro histone deacetylase assay: enzymatic HDAC6 electrophoretic mobility shift assay
Assay type: biochemical
Conditions: 1 nM enzyme, 2 μM peptide substrate RHKK(Ac)-NH2, 25° C., 12 concentrations; read-out: Inhibitory Concentration (IC50) Values against HDAC6, Activity Range

CCC(=O)N1Cc2ccc(C(=O)NO)cc2OC[C@@H]1C [(S)-N-hydroxy-3-methyl-4-propionyl-2,3,4,5-tetrahydrobenzo[f][1,4]oxazepine-8-carboxamide]
IC50: ≤ 100 nM

CC(C)[C@H]1c2ccc(C(=O)NO)cc2OCCN1C(=O)C1COC1 [(S)-N-hydroxy-5-isopropyl-4-(oxetane-3-carbonyl)-2,3,4,5-tetrahydrobenzo[f][1,4]oxazepine-8-carboxamide]
IC50: > 500 nM

C[C@H]1c2ccc(C(=O)NO)cc2OCCN1C(=O)[C@]1(C)CCCOC1 [(S)-N-hydroxy-5-methyl-4-((R)-3-methyltetrahydro-2H-pyran-3-carbonyl)-2,3,4,5-tetrahydrobenzo[f][1,4]oxazepine-8-carboxamide]
IC50: ≤ 100 nM

O=C(NO)c1ccc2c(c1)OCCN(C(=O)c1ccc(OC(F)F)cc1)C2 [4-(4-(difluoromethoxy)benzoyl)-N-hydroxy-2,3,4,5-tetrahydrobenzo[f][1,4]oxazepine-8-carboxamide]
IC50: 100 to 500 nM

O=C(NO)c1ccc2c(c1)OCCN(C(=O)c1ccc(C(F)(F)F)cc1)C2 [N-hydroxy-4-(4-(trifluoromethyl)benzoyl)-2,3,4,5-tetrahydrobenzo[f][1,4]oxazepine-8-carboxamide]
IC50: 100 to 500 nM

C[C@H]1COc2cc(C(=O)NO)ccc2CN1C(=O)[C@H]1CCOC(C)(C)C1 [(S)-4-((S)-2,2-dimethyltetrahydro-2H-pyran-4-carbonyl)-N-hydroxy-3-methyl-2,3,4,5-tetrahydrobenzo[f][1,4]oxazepine-8-carboxamide]
IC50: ≤ 100 nM

CC(C)(C)OC(=O)N1CCC2(CC1)c1ccccc1OC2C(=O)N1CCOc2cc(C(=O)NO)ccc2C1 (stereo not drawn) [tert-butyl 2-(8-(hydroxycarbamoyl)-2,3,4,5-tetrahydrobenzo[f][1,4]oxazepine-4-carbonyl)-2H-spiro[benzofuran-3,4′-piperidine]-1′-carboxylate]
IC50: 100 to 500 nM

O=C(NO)c1ccc2c(c1)OCCN(C(=O)CCc1ccccc1)C2 [N-hydroxy-4-(3-phenylpropanoyl)-2,3,4,5-tetrahydrobenzo[f][1,4]oxazepine-8-carboxamide]
IC50: ≤ 100 nM

O=C(NO)c1ccc2c(c1)OCC(C1CCOCC1)N(C(=O)C1CCOCC1)C2 (stereo not drawn) [N-hydroxy-4-(tetrahydro-2H-pyran-4-carbonyl)-3-(tetrahydro-2H-pyran-4-yl)-2,3,4,5-tetrahydrobenzo[f][1,4]oxazepine-8-carboxamide]
IC50: > 500 nM

O=C(NO)c1ccc2c(c1)OCCN(C(=O)[C@H]1CCCOC1)C2 [(S)-N-hydroxy-4-(tetrahydro-2H-pyran-3-carbonyl)-2,3,4,5-tetrahydrobenzo[f][1,4]oxazepine-8-carboxamide]
IC50: ≤ 100 nM

CC1(C(=O)N2CCOc3cc(C(=O)NO)ccc3C2)COC1 [N-hydroxy-4-(3-methyloxetane-3-carbonyl)-2,3,4,5-tetrahydrobenzo[f][1,4]oxazepine-8-carboxamide]
IC50: ≤ 100 nM

C[C@H]1c2ccc(C(=O)NO)cc2OCCN1C(=O)C1(C)CCOCC1 [(S)-N-hydroxy-5-methyl-4-(4-methyltetrahydro-2H-pyran-4-carbonyl)-2,3,4,5-tetrahydrobenzo[f][1,4]oxazepine-8-carboxamide]
IC50: ≤ 100 nM

C[C@H]1c2ccc(C(=O)NO)cc2OCCN1C(=O)[C@@H]1CCCOC1 [(S)-N-hydroxy-5-methyl-4-((R)-tetrahydro-2H-pyran-3-carbonyl)-2,3,4,5-tetrahydrobenzo[f][1,4]oxazepine-8-carboxamide]
IC50: ≤ 100 nM

CC1(C(=O)N2CCOc3cc(C(=O)NO)ccc3C2)CCC1 [N-hydroxy-4-(1-methylcyclobutane-1-carbonyl)-2,3,4,5-tetrahydrobenzo[f][1,4]oxazepine-8-carboxamide]
IC50: ≤ 100 nM

O=CN1Cc2ccc(C(=O)NO)cc2O[C@H](c2ccccc2)C1 [(R)-4-formyl-N-hydroxy-2-phenyl-2,3,4,5-tetrahydrobenzo[f][1,4]oxazepine-8-carboxamide]
IC50: ≤ 100 nM

CC(Cc1ccccc1)C(=O)N1CCOc2cc(C(=O)NO)ccc2C1 (stereo not drawn) [N-hydroxy-4-(2-methyl-3-phenylpropanoyl)-2,3,4,5-tetrahydrobenzo[f][1,4]oxazepine-8-carboxamide]
IC50: ≤ 100 nM

CC1(C(=O)N2CCOc3cc(C(=O)NO)ccc3C2)CCCC1 [N-hydroxy-4-(1-methylcyclopentane-1-carbonyl)-2,3,4,5-tetrahydrobenzo[f][1,4]oxazepine-8-carboxamide]
IC50: ≤ 100 nM

CC(=O)N1Cc2ccc(C(=O)NO)cc2OC[C@@H]1C [(S)-4-acetyl-N-hydroxy-3-methyl-2,3,4,5-tetrahydrobenzo[f][1,4]oxazepine-8-carboxamide]
IC50: 100 to 500 nM

C[C@@H]1COc2cc(C(=O)NO)ccc2CN1C=O [(R)-4-formyl-N-hydroxy-3-methyl-2,3,4,5-tetrahydrobenzo[f][1,4]oxazepine-8-carboxamide]
IC50: ≤ 100 nM

Cc1ccn(C(C)(C)C(=O)N2CCOc3cc(C(=O)NO)ccc3C2)n1 [N-hydroxy-4-(2-methyl-2-(3-methyl-1H-pyrazol-1-yl)propanoyl)-2,3,4,5-tetrahydrobenzo[f][1,4]oxazepine-8-carboxamide]
IC50: ≤ 100 nM

CO[C@H]1C[C@H](C(=O)N2Cc3ccc(C(=O)NO)cc3OC[C@@H]2C)C1
IC50: ≤ 100 nM

O=C(NO)c1ccc2c(c1)OCCN(C(=O)C(c1ccccc1)N1CCC(O)CC1)C2 (stereo not drawn) [N-hydroxy-4-(2-(4-hydroxypiperidin-1-yl)-2-phenylacetyl)-2,3,4,5-tetrahydrobenzo[f][1,4]oxazepine-8-carboxamide]
IC50: 100 to 500 nM

O=C(NO)c1ccc2c(c1)OCCN(C(=O)Cc1ccccc1Oc1ccccc1)C2 [N-hydroxy-4-(2-(2-phenoxyphenyl)acetyl)-2,3,4,5-tetrahydrobenzo[f][1,4]oxazepine-8-carboxamide]
IC50: > 500 nM

O=C(NO)c1cnc2c(c1)OCCN(C(=O)C1CCCCC1)C2 [4-(cyclohexanecarbonyl)-N-hydroxy-2,3,4,5-tetrahydropyrido[2,3-f][1,4]oxazepine-8-carboxamide]
IC50: 100 to 500 nM

O=C(NO)c1ccc2c(c1)OCCN(C(=O)C1CCC3(CCNC3)CC1)C2 (stereo not drawn) [N-hydroxy-4-(2-azaspiro[4.5]decane-8-carbonyl)-2,3,4,5-tetrahydrobenzo[f][1,4]oxazepine-8-carboxamide]
IC50: ≤ 100 nM

COCCC(C(=O)N1CCOc2cc(C(=O)NO)ccc2C1)c1ccccn1 (stereo not drawn) [N-hydroxy-4-(4-methoxy-2-(pyridin-2-yl)butanoyl)-2,3,4,5-tetrahydrobenzo[f][1,4]oxazepine-8-carboxamide]
IC50: 100 to 500 nM

O=CN1Cc2ccc(C(=O)NO)cc2O[C@@H](c2ccccc2)C1 [(S)-4-formyl-N-hydroxy-2-phenyl-2,3,4,5-tetrahydrobenzo[f][1,4]oxazepine-8-carboxamide]
IC50: ≤ 100 nM

O=C(NO)c1ccc2c(c1)OCCN(C(=O)C(OCC(F)(F)F)c1ccccc1)C2 (stereo not drawn) [N-hydroxy-4-(2-phenyl-2-(2,2,2-trifluoroethoxy)acetyl)-2,3,4,5-tetrahydrobenzo[f][1,4]oxazepine-8-carboxamide]
IC50: 100 to 500 nM

O=C(NO)c1ccc2c(c1)OCCN(C(=O)C1CC3CCC(C1)O3)C2 (stereo not drawn) [4-(8-oxabicyclo[3.2.1]octane-3-carbonyl)-N-hydroxy-2,3,4,5-tetrahydrobenzo[f][1,4]oxazepine-8-carboxamide]
IC50: ≤ 100 nM

COC1(C(=O)N2CCOc3cc(C(=O)NO)ccc3C2)CC1 [N-hydroxy-4-(1-methoxycyclopropane-1-carbonyl)-2,3,4,5-tetrahydrobenzo[f][1,4]oxazepine-8-carboxamide]
IC50: ≤ 100 nM

CC(C)C(=O)N1Cc2ccc(C(=O)NO)cc2OC[C@@H]1C [(S)-N-hydroxy-4-isobutyryl-3-methyl-2,3,4,5-tetrahydrobenzo[f][1,4]oxazepine-8-carboxamide]
IC50: ≤ 100 nM

C[C@@H]1CN(C=O)Cc2ccc(C(=O)NO)cc2O1 [(R)-4-formyl-N-hydroxy-2-methyl-2,3,4,5-tetrahydrobenzo[f][1,4]oxazepine-8-carboxamide]
IC50: ≤ 100 nM

CC(C)(C)OC(=O)N1CCC2(CC1)OC(C(=O)N1CCOc3cc(C(=O)NO)ccc3C1)c1ccccc12 (stereo not drawn) [tert-butyl 3-(8-(hydroxycarbamoyl)-2,3,4,5-tetrahydrobenzo[f][1,4]oxazepine-4-carbonyl)-3H-spiro[isobenzofuran-1,4′-piperidine]-1′-carboxylate]
IC50: 100 to 500 nM
